Assay results taken from patent US20050054025A1 (priority 2003, published 2005).
pIC50: −log10 of the molar value. In brackets after ≈: the same amount, converted by molar mass. Marks after values point to notes of the source that are not given here.

What was measured:
acetylcholinesterase [1] = target: acetylcholinesterase (Homo sapiens, UniProt P22303); experiment: biochemical; type: biochemical; details: for IC20: read-out: Porex Dot Test IC20
acetylcholinesterase [2] = details: cited from earlier work

Sequence of acetylcholinesterase (Homo sapiens, UniProt P22303) (P22303 32-614, species assumed): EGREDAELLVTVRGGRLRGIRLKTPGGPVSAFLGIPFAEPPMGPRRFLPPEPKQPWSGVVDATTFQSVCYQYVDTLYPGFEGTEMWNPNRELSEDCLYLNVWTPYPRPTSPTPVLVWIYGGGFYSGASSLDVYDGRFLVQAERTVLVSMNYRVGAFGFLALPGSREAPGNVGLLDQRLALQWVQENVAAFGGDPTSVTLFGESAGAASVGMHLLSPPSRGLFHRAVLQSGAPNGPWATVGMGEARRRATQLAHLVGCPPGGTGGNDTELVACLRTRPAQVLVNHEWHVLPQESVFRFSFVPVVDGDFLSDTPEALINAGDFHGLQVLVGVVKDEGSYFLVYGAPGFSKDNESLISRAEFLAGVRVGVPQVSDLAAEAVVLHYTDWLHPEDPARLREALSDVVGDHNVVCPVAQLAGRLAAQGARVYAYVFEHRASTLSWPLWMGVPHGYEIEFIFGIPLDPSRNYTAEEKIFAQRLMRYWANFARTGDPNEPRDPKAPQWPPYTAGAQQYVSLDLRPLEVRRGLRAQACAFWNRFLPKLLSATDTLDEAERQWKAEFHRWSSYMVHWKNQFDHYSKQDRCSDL

Row | Structure (SMILES) | IC20 (acetylcholinesterase [1]) | EnviroLogix IC20 (acetylcholinesterase [2]) | further results
1 | CNC(=O)O/N=C/C(C)(C)SC [Aldicarb] | 33 ng/mL (≈ 173 nM) |  | 
2 | CNC(=O)Oc1ccccc1OC(C)C [Baygon (propoxur), propoxur] | 9 ng/mL (≈ 43 nM) | 50 μg/L | 
3 | CNC(=O)Oc1cccc2ccccc12 [Carbaryl] | 9 ng/mL (≈ 44.7 nM) | 110 μg/L | 
4 | CNC(=O)Oc1cccc2c1OC(C)(C)C2 [Carbofuran] | 0.4 ng/mL (≈ 1.81 nM) | 40 μg/L | 
5 | CCOP(=S)(OCC)Oc1nc(Cl)c(Cl)cc1Cl [Chloropyrifos] |  | 5.2 μg/L | pIC50 (acetylcholinesterase [1]): 9.54
6 | CCOP(=S)(OCC)Oc1cc(C)nc(C(C)C)n1 [Diazinon] | 0.14 ng/mL (≈ 0.46 nM) |  | EnviroLogix IC50 (cells marked *) (acetylcholinesterase [2]): 3.0* μg/L
7 | CCOP(=S)(OCC)SCCSCC [Disulfoton] | 0.5 ng/mL (≈ 1.82 nM) |  | 
8 | CCOC(=O)CC(SP(=S)(OC)OC)C(=O)OCC (stereo not drawn) [Malithion] |  | 60 μg/L | Porex Dot Test IC20 (acetylcholinesterase [1]): 0.11 ng/mL
9 | CNC(=O)ON=C(C)SC [Methomyl] | 0.011 ng/mL (≈ 0.0678 nM) |  | 
10 | CNC(=O)O/N=C(\SC)C(=O)N(C)C [Oxymyl] |  | 100 μg/L | Porex Dot Test IC20 (acetylcholinesterase [1]): 16.7 ng/mL
11 | CCOP(=O)(OCC)Oc1ccc([N+](=O)[O-])cc1 [Paraoxon] |  |  | detectable amount using instrument detection (acetylcholinesterase [1]): about 0.5 ng/mL; detectable level, determined visually (acetylcholinesterase [1]): 10 ng/mL
12 | CCOP(=S)(OCC)SCSC(C)(C)C [Terbufos] | 143 ng/mL (≈ 496 nM) |  | EnviroLogix IC50 (cells marked *) (acetylcholinesterase [2]): 12* μg/L
